Results taken from ChEMBL document CHEMBL1135312, “N-Aroyl-L-phenylalanine derivatives as VCAM/VLA-4 antagonists” (Bioorg Med Chem Lett, 2002).

Columns and labels:
[1] = target: T1, Integrin alpha-4/beta-1 (Homo sapiens, UniProt P05556+P13612); experiment: Inhibitory binding concentration against VCAM/VLA-4 in Ramos.; format: protein-complex assay
[2] = target: T1, Integrin alpha-4/beta-1; experiment: Inhibitory binding concentration against VCAM/VLA-4 in ELISA.; format: protein-complex assay

T1 sequence (P05556 whole entry): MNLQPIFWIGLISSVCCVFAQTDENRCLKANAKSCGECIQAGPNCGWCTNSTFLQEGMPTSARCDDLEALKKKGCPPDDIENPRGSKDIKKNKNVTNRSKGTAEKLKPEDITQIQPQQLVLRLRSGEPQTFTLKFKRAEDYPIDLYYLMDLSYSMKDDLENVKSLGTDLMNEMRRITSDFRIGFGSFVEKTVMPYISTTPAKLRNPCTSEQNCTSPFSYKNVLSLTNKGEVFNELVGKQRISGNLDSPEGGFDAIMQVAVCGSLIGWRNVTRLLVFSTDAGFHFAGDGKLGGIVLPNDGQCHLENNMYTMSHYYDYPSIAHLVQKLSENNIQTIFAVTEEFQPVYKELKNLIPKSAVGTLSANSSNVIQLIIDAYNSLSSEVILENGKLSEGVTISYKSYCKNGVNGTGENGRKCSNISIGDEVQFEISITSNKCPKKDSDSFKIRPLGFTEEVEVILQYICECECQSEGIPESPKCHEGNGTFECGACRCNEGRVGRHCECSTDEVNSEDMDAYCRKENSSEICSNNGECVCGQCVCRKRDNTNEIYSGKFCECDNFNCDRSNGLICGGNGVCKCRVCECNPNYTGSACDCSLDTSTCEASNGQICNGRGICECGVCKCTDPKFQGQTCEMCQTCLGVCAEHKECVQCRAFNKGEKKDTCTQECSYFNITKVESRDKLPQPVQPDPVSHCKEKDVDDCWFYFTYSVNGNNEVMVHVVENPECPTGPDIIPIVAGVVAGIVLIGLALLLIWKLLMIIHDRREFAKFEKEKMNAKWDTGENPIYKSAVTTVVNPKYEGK
T1 sequence (P13612 whole entry): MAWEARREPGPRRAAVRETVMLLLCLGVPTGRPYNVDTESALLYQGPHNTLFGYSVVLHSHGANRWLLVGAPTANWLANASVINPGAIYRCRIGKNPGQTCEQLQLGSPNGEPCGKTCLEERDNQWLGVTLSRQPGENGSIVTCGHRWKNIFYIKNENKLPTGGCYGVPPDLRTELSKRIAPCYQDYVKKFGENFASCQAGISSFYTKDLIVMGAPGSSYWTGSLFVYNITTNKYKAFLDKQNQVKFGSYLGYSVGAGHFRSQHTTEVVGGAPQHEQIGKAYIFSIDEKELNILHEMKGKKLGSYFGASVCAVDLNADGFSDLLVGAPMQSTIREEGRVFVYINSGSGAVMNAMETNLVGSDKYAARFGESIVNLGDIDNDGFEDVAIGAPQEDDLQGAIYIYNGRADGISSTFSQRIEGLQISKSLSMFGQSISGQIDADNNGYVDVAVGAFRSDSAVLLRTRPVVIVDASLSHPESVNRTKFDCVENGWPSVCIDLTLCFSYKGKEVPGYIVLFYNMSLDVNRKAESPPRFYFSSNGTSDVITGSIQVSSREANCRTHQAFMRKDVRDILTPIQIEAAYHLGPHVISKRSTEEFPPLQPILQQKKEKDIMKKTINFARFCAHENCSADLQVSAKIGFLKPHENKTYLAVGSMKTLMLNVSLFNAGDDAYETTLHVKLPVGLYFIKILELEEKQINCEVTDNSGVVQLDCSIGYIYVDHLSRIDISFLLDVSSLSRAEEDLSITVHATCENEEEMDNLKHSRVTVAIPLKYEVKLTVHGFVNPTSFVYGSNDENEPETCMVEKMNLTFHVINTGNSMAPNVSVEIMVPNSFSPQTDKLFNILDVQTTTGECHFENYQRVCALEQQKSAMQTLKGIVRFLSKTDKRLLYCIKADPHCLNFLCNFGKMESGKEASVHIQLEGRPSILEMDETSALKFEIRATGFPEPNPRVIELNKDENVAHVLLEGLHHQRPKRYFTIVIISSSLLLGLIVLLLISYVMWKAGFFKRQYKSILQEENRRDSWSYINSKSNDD

| Compound | IC50 [1] | IC50 [2] |
| --- | --- | --- |
| CS(=O)(=O)c1ccccc1C(=O)N[C@@H](Cc1ccc(NC(=O)c2c(Cl)cccc2Cl)cc1)C(=O)O | 160 nM |  |
| Cc1ncccc1C(=O)N[C@@H](Cc1ccc(NC(=O)c2c(Cl)cccc2Cl)cc1)C(=O)O | 180 nM | 2 nM |
| Cc1nc(C(C)C)sc1C(=O)N[C@@H](Cc1ccc(NC(=O)c2c(Cl)cccc2Cl)cc1)C(=O)O | 69 nM | 0.56 nM |
| CCCc1cccc(C)c1C(=O)N[C@@H](Cc1ccc(NC(=O)c2c(Cl)cccc2Cl)cc1)C(=O)O | 17 nM | 0.42 nM |
| O=C(N[C@@H](Cc1ccc(NC(=O)c2c(Cl)cccc2Cl)cc1)C(=O)O)c1sccc1Br | 890 nM | 1.5 nM |
| Cc1cccc(C)c1C(=O)N[C@@H](Cc1ccc(NC(=O)c2c(Cl)cccc2Cl)cc1)C(=O)O | 84 nM | 1.3 nM |
| Cc1cccc(F)c1C(=O)N[C@@H](Cc1ccc(NC(=O)c2c(Cl)cccc2Cl)cc1)C(=O)O | 85 nM | 0.44 nM |
| O=C(N[C@@H](Cc1ccc(NC(=O)c2c(Cl)cccc2Cl)cc1)C(=O)O)c1ccccc1C(F)(F)F | 650 nM | 16 nM |
| O=C(N[C@@H](Cc1ccc(NC(=O)c2c(Cl)cccc2Cl)cc1)C(=O)O)c1cccc(Cl)c1Cl | 1600 nM |  |
| CSc1ccccc1C(=O)N[C@@H](Cc1ccc(NC(=O)c2c(Cl)cccc2Cl)cc1)C(=O)O | 100 nM | 0.4 nM |
| O=C(N[C@@H](Cc1ccc(NC(=O)c2c(Cl)cccc2Cl)cc1)C(=O)O)c1ccccc1Br | 45 nM | 0.49 nM |
| Cc1cccc(Cl)c1C(=O)N[C@@H](Cc1ccc(NC(=O)c2c(Cl)cccc2Cl)cc1)C(=O)O | 12 nM | 0.3 nM |
| O=C(Nc1ccc(C[C@H](NC(=O)c2c(F)cccc2C(F)(F)F)C(=O)O)cc1)c1c(Cl)cccc1Cl |  | 0.4 nM |
| O=C(N[C@@H](Cc1ccc(NC(=O)c2c(Cl)cccc2Cl)cc1)C(=O)O)c1cncnc1C(F)(F)F | 190 nM | 2 nM |
| CC(=O)c1cccc(Cl)c1C(=O)N[C@@H](Cc1ccc(NC(=O)c2c(Cl)cccc2Cl)cc1)C(=O)O | 49 nM | 1.6 nM |
| CC(C)(C)c1ccccc1C(=O)N[C@@H](Cc1ccc(NC(=O)c2c(Cl)cccc2Cl)cc1)C(=O)O | 74 nM | 1.9 nM |
| COc1ccccc1C(=O)N[C@@H](Cc1ccc(NC(=O)c2c(Cl)cccc2Cl)cc1)C(=O)O | 6800 nM |  |
| COc1ccc(Br)c(C(=O)N[C@@H](Cc2ccc(NC(=O)c3c(Cl)cccc3Cl)cc2)C(=O)O)c1 | 19 nM |  |
| Cc1cccc(C(=O)N[C@@H](Cc2ccc(NC(=O)c3c(Cl)cccc3Cl)cc2)C(=O)O)c1Cl | 1300 nM |  |
| O=C(N[C@@H](Cc1ccc(NC(=O)c2c(Cl)cccc2Cl)cc1)C(=O)O)c1c(F)cccc1F | 67 nM | 1.2 nM |

The remaining lines, values ahead:

| IC50 [1] | IC50 [2] | Compound |
| --- | --- | --- |
| 200 nM |  | Cc1cc(C(F)(F)F)c(C(=O)N[C@@H](Cc2ccc(NC(=O)c3c(Cl)cccc3Cl)cc2)C(=O)O)c(C)n1 |
| 1300 nM |  | O=C(N[C@@H](Cc1ccc(NC(=O)c2c(Cl)cccc2Cl)cc1)C(=O)O)c1ccc(Br)cc1Cl |
| 450 nM | 8.8 nM | O=C(N[C@@H](Cc1ccc(NC(=O)c2c(Cl)cccc2Cl)cc1)C(=O)O)c1cc(C(F)(F)F)ccc1Cl |
| 23 nM | 0.89 nM | Cc1ccnc(C)c1C(=O)N[C@@H](Cc1ccc(NC(=O)c2c(Cl)cccc2Cl)cc1)C(=O)O |
| 460 nM |  | CC(C)c1cccc(C(C)C)c1C(=O)N[C@@H](Cc1ccc(NC(=O)c2c(Cl)cccc2Cl)cc1)C(=O)O |
|  | 1.9 nM | COc1ccc(C(=O)N[C@@H](Cc2ccc(NC(=O)c3c(Cl)cccc3Cl)cc2)C(=O)O)c(Cl)c1 |
| 580 nM | 15 nM | Cc1noc(C)c1C(=O)N[C@@H](Cc1ccc(NC(=O)c2c(Cl)cccc2Cl)cc1)C(=O)O |
|  | 0.3 nM | CCc1cccc(C)c1C(=O)N[C@@H](Cc1ccc(NC(=O)c2c(Cl)cccc2Cl)cc1)C(=O)O |
| 1440 nM | 25 nM | Cc1nn(-c2ccccc2)nc1C(=O)N[C@@H](Cc1ccc(NC(=O)c2c(Cl)cccc2Cl)cc1)C(=O)O |
| 460 nM | 11 nM | Cc1ccc(Cl)c(C(=O)N[C@@H](Cc2ccc(NC(=O)c3c(Cl)cccc3Cl)cc2)C(=O)O)c1 |
| 1000 nM |  | CNc1ccccc1C(=O)N[C@@H](Cc1ccc(NC(=O)c2c(Cl)cccc2Cl)cc1)C(=O)O |
